Data on 41 compounds can be found in the Kinase Knowledgebase extract (Sharma et al. 2016).

The structures appear in SMILES notation. “And” between values parts separate entries of the source, which are not always exact repeats. Identical values can stand only once.

The target of the assay is CDK2 (human) (UniProt P24941). Put plainly: Enzyme Assay.

`CCN(CC)CCOc1ccc2cc1COCC=CCCOc1cccc(c1)-c1ccnc(n1)N2` registered an IC50 of more than 5000 nM.
The value for `C1=CCOCc2cc(ccc2OCCN2CCCC2)Nc2nccc(n2)-c2csc(c2)COC1` was more than 5000 nM.
On to `C1=CCOCc2cc(ccc2OCCN2CCCC2)Nc2nccc(n2)-c2cc(co2)COC1`, for which the IC50 is more than 5000 nM.
The value for `Fc1cc2cc(c1)-c1ccnc(n1)Nc1ccc(OCCN3CCCC3)c(c1)COCC=CCCO2` was 1000 to 5000 nM.
The compound `C1=CCNCc2cccc(c2)Nc2nccc(n2)-c2cccc(c2)OCC1` returned an IC50 not above 1000 nM.
In the case of `CN1CCN(c2ccc3cc2COCC=CCOCc2cccc(c2)-c2ccnc(n2)N3)CC1` it was more than 5000 nM; in that of `Fc1ccc2cc1COCC=CCOCc1cc(ccc1OCCN1CCCC1)Nc1nccc-2n1`, 1000 to 5000 nM.
The value for `COc1ccc2cc1COCC=CCOCc1cc(ccc1OCCN1CCCC1)Nc1nccc-2n1` was more than 5000 nM; that for `CN1CC=CCOCC2=CC=C(S2)c2ccnc(n2)Nc2ccc(OCCN3CCCC3)c(c2)C1` was not above 1000 nM.
In the case of `O=C1CCC=CCOCc2cccc(c2)Nc2nccc(n2)-c2cccc(c2)N1` it was 1000 to 5000 nM; in that of `C1=CCOCc2cc(ccc2OCCN2CCCC2)Nc2nccc(n2)C2=CC=C(COC1)O2`, more than 5000 nM.
`CN1CC=CCCOc2cc(F)cc(c2)-c2ccnc(n2)Nc2cccc(c2)C1` showed a half-inhibitory concentration (IC50) not above 1000 nM.
The value for `CN1CC=CCCOc2cc(F)cc(c2)-c2ccnc(n2)Nc2ccc(OCCN3CCCC3)c(c2)C1` was not above 1000 nM.
The value for `CCN(CC)CCOc1ccc2cc1COCC=CCCOc1cc(ccc1OC)-c1ccnc(n1)N2` was more than 5000 nM.
In the case of `CN1Cc2cccc(c2)Nc2nccc(n2)-c2cccc(c2)OCCC2CC2C1` (stereo unspecified) it was not above 1000 nM.
With `C1=CCOCc2cc(ccc2N2CCOCC2)Nc2nccc(n2)-c2cccc(c2)COC1`, the concentration for half-maximal inhibition (IC50) is more than 5000 nM.
In the case of `CCN(CC)CCOc1ccc2cc1COCC=CCCOc1cccc(c1)-c1nc(ncc1C)N2` it was more than 5000 nM.
In turn, `CN1CC=CCCOc2cccc(c2)-c2ccnc(n2)Nc2ccc(OCCN3CCCCC3)c(c2)C1` yielded a half-maximal inhibitory concentration (IC50) not above 1000 nM.
On to `C1=CCN(C2CC2)Cc2cccc(c2)Nc2nccc(n2)-c2cccc(c2)OCC1`, for which the IC50 is not above 1000 nM.
`CN1CC=CCC(=O)Nc2cccc(c2)-c2ccnc(n2)Nc2cccc(c2)C1` gave an IC50 of 1000 to 5000 nM.
In the case of `C1=CCN(C2CC2)Cc2cc(ccc2OCCN2CCOCC2)Nc2nccc(n2)-c2cccc(c2)OCC1` it was not above 1000 nM.
In the case of `COc1cc2cc(c1OCCN1CCCC1)COCC=CCOCc1cccc(c1)-c1ccnc(n1)N2` it was 1000 to 5000 nM; in that of `CCN(CC)CCOc1ccc2cc1COCC=CCOCc1cccc(c1)-c1ccnc(n1)N2`, 1000 to 5000 nM.
The value for `CN1CC=CCCOc2cccc(c2)-c2ccnc(n2)Nc2cc(ccn2)C1` was 1000 to 5000 nM; that for `c1cc2cc(c1)-c1ccnc(n1)Nc1ccc(OCCN3CCCC3)c(c1)COCC1CC1COC2` (stereo unspecified) was 1000 to 5000 nM; that for `CN1CC=CCCOc2cccc(c2)-c2ccnc(n2)Nc2ccc(OCCn3cncn3)c(c2)C1` was not above 1000 nM.
Compound `CN1CC=CCCOc2cc(ccc2N)-c2ccnc(n2)Nc2cccc(c2)C1` came in with a 50% inhibitory concentration (IC50) not above 1000 nM.
On to `CN1CC=CCOCC2=CC=C(O2)c2ccnc(n2)Nc2cccc(c2)C1`, for which the half-inhibitory concentration (IC50) was not above 1000 nM.
The value for `CN1CC=CCCOc2cccc(c2)-c2ccnc(n2)Nc2ccc(OCCN3CCOCC3)c(c2)C1` was not above 1000 nM; that for `Cc1cnc2nc1-c1cccc(c1)OCCC=CCN(C)Cc1cccc(c1)N2` was not above 1000 nM; that for `C1=CCOCc2cc(ccc2OCCN2CCCC2)Nc2nccc(n2)-c2cccc(c2)COC1` was 1000 to 5000 nM.
In the case of `CN1CC=CCCOc2cccc(c2)-c2ccnc(n2)Nc2cc(N)cc(c2)C1` it was not above 1000 nM.
In the case of `CN1CC=CCCOc2cccc(c2)-c2ccnc(n2)Nc2ccc(N3CCOCC3)c(c2)C1` it was not above 1000 nM.
`CCS(=O)(=O)CCOc1ccc2cc1CN(C)CC=CCCOc1cccc(c1)-c1ccnc(n1)N2`: the IC50 is not above 1000 nM.
In the case of `CN1CC=CCCOc2cccc(c2)-c2ccnc(n2)Nc2ccc(OCCN3CCCC3)c(c2)C1` it was not above 1000 nM.
The compound `C1=CCOCc2cc(ccc2OCCN2CCCC2)Nc2nccc(n2)C2=CC=C(COC1)S2` came in with an IC50 of more than 5000 nM.
In the case of `O=C1NCC=CCOCc2cccc(c2)Nc2nccc(n2)-c2cccc1c2` it was more than 5000 nM; in that of `C1=CCOCc2cc(ccc2OCCN2CCCC2)Nc2nccc(n2)-c2cncc(c2)COC1`, 1000 to 5000 nM; in that of `CCN(CC)CCOc1ccc2cc1CN(C)CC=CCCOc1cccc(c1)-c1ccnc(n1)N2`, not above 1000 nM.
The value for `COc1ccc2cc1COCC=CCOc1cccc(c1)-c1ccnc(n1)N2` was ≤ 1000 nM and > 5000 nM.
The value for `C1=CCOCc2cc(ccc2OCCN2CCCC2)Nc2nccc(n2)-c2coc(c2)COC1` was more than 5000 nM.

As usually defined, the IC50 is the concentration at which inhibition is half-maximal. A high value points to lower potency.
